Source: PubChem BioAssay (NCI)
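How tested: cells in 96-well plates exposed to compound for 48 hours at five concentrations. Here, GI50 denotes the concentration required for 50% inhibition of growth. The concentration for full growth arrest is given as TGI.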

How the values were obtained:
Assay in all cases: NCI anticancer screen, dose series, 48 h
[1] = tested on: SK-MEL-2 melanoma
[2] = tested on: A498 renal
[3] = tested on: HT29 colon
[4] = tested on: MDA-MB-468 breast
[5] = tested on: SK-MEL-28 melanoma
[6] = tested on: EKVX NSCLC
[7] = tested on: U251 CNS
[8] = tested on: SR leukemia
[9] = tested on: SF-295 CNS
[10] = tested on: MOLT-4 leukemia
[11] = tested on: TK-10 renal
[12] = tested on: SNB-75 CNS
[13] = tested on: MDA-MB-435
[14] = tested on: HL-60(TB) leukemia
[15] = tested on: SNB-19 CNS
[16] = tested on: MCF7 breast
[17] = tested on: OVCAR-3 ovarian
[18] = tested on: MALME-3M melanoma
[19] = tested on: CAKI-1 renal
[20] = tested on: UACC-62 melanoma
[21] = tested on: SK-MEL-5 melanoma
[22] = tested on: M14 melanoma
[23] = tested on: BT-549 breast
[24] = tested on: ACHN renal
[25] = tested on: OVCAR-5 ovarian
[26] = tested on: RXF 393 renal
[27] = tested on: HCT-116 colon
[28] = tested on: RPMI-8226 leukemia
[29] = tested on: SF-539 CNS
[30] = tested on: NCI-H460 lung
[31] = tested on: SN12C renal
[32] = tested on: A549 NSCLC
[33] = tested on: NCI/ADR-RES ovarian
[34] = tested on: NCI-H226 lung
[35] = tested on: OVCAR-4 ovarian
[36] = tested on: HCC-2998 colon
[37] = tested on: HCT-15 colon
[38] = tested on: 786-0 renal
[39] = tested on: PC-3 prostate
[40] = tested on: MDA-MB-231 breast
[41] = tested on: HOP-92 NSCLC
[42] = tested on: LOX IMVI melanoma
[43] = tested on: UO-31 renal
[44] = tested on: IGROV1 ovarian
[45] = tested on: K-562 leukemia
[46] = tested on: OVCAR-8 ovarian
[47] = tested on: NCI-H23 lung
[48] = tested on: HOP-62 NSCLC
[49] = tested on: HS 578T breast
[50] = tested on: SK-OV-3 ovarian
[51] = tested on: SW-620 colon
[52] = tested on: T-47D breast
[53] = tested on: SF-268 CNS
[54] = tested on: NCI-H522 lung
[55] = tested on: DU-145 prostate
[56] = tested on: COLO 205 colon
[57] = tested on: UACC-257 melanoma
[58] = tested on: CCRF-CEM leukemia
[59] = tested on: KM12 colon

CC12OOC(C)(OO1)C2CCC(=O)NCCCNc1ccnc2cc(Cl)ccc12 (stereo not drawn)
GI50 [1]: > 20 µM
TGI [1]: > 20 µM
GI50 [2]: > 20 µM
TGI [2]: > 20 µM
GI50 [3]: 3.86 µM
TGI [3]: 7.47 µM
GI50 [4]: 3.6 µM
TGI [4]: 8.97 µM
GI50 [5]: > 20 µM
TGI [5]: > 20 µM
GI50 [6]: 3.8 µM
TGI [6]: 7.99 µM
GI50 [7]: > 20 µM
TGI [7]: > 20 µM
GI50 [8]: 3.88 µM
TGI [8]: 8.71 µM
GI50 [9]: > 20 µM
TGI [9]: > 20 µM
GI50 [10]: 8.6 µM
TGI [10]: > 20 µM
GI50 [11]: 4.62 µM
TGI [11]: 14.5 µM
GI50 [12]: > 20 µM
TGI [12]: > 20 µM
GI50 [13]: 4.84 µM
TGI [13]: 16.2 µM
GI50 [14]: 3.6 µM
TGI [14]: 8.63 µM
GI50 [15]: > 20 µM
TGI [15]: > 20 µM
GI50 [16]: 8.11 µM
TGI [16]: > 20 µM
GI50 [17]: 2.97 µM
TGI [17]: 5.83 µM
GI50 [18]: 3.35 µM
TGI [18]: 6.31 µM
GI50 [19]: 3.31 µM
TGI [19]: 6.07 µM
GI50 [20]: 12.6 µM
TGI [20]: > 20 µM
GI50 [21]: > 20 µM
TGI [21]: > 20 µM
GI50 [22]: 3.66 µM
TGI [22]: 7.4 µM
GI50 [23]: > 20 µM
TGI [23]: > 20 µM
GI50 [24]: 3.45 µM
TGI [24]: 6.22 µM
GI50 [25]: > 20 µM
TGI [25]: > 20 µM
GI50 [26]: 3.69 µM
TGI [26]: 9.56 µM
GI50 [27]: 5.56 µM
TGI [27]: 17.6 µM
GI50 [28]: 9.51 µM
TGI [28]: > 20 µM
GI50 [29]: 11.3 µM
TGI [29]: > 20 µM
GI50 [30]: 12.7 µM
TGI [30]: > 20 µM
GI50 [31]: > 20 µM
TGI [31]: > 20 µM
GI50 [32]: 4.22 µM
TGI [32]: 9.86 µM
GI50 [33]: > 20 µM
TGI [33]: > 20 µM
GI50 [34]: > 20 µM
TGI [34]: > 20 µM
GI50 [35]: 3.19 µM
TGI [35]: 6.64 µM
GI50 [36]: > 20 µM
TGI [36]: > 20 µM
GI50 [37]: 4.03 µM
TGI [37]: 9.17 µM
GI50 [38]: 3.5 µM
TGI [38]: 7.16 µM
GI50 [39]: > 20 µM
TGI [39]: > 20 µM
GI50 [40]: 8.26 µM
TGI [40]: > 20 µM
GI50 [41]: 3.34 µM
TGI [41]: 6.87 µM
GI50 [42]: 3.06 µM
TGI [42]: 5.85 µM
GI50 [43]: 3.1 µM
TGI [43]: 5.78 µM
GI50 [44]: 7.07 µM
TGI [44]: > 20 µM
GI50 [45]: 4.28 µM
TGI [45]: 10.1 µM
GI50 [46]: > 20 µM
TGI [46]: > 20 µM
GI50 [47]: > 20 µM
TGI [47]: > 20 µM
GI50 [48]: > 20 µM
TGI [48]: > 20 µM
GI50 [49]: > 20 µM
TGI [49]: > 20 µM
GI50 [50]: > 20 µM
TGI [50]: > 20 µM
GI50 [51]: 4.3 µM
TGI [51]: > 20 µM
GI50 [52]: 4.35 µM
TGI [52]: 13.4 µM
GI50 [53]: > 20 µM
TGI [53]: > 20 µM
GI50 [54]: 2.66 µM
TGI [54]: 5.59 µM
GI50 [55]: 3.58 µM
TGI [55]: 6.52 µM
GI50 [56]: 3.69 µM
TGI [56]: 7.68 µM
GI50 [57]: 9.4 µM
TGI [57]: > 20 µM
GI50 [58]: 4.51 µM
TGI [58]: 14.1 µM
GI50 [59]: > 20 µM
TGI [59]: > 20 µM
